Target: T1, purified human HDAC6 (Homo sapiens, UniProt Q9UBN7)
T1 construct: purchased BPS Bioscience 5006
T1 sequence (Q9UBN7 1-1215): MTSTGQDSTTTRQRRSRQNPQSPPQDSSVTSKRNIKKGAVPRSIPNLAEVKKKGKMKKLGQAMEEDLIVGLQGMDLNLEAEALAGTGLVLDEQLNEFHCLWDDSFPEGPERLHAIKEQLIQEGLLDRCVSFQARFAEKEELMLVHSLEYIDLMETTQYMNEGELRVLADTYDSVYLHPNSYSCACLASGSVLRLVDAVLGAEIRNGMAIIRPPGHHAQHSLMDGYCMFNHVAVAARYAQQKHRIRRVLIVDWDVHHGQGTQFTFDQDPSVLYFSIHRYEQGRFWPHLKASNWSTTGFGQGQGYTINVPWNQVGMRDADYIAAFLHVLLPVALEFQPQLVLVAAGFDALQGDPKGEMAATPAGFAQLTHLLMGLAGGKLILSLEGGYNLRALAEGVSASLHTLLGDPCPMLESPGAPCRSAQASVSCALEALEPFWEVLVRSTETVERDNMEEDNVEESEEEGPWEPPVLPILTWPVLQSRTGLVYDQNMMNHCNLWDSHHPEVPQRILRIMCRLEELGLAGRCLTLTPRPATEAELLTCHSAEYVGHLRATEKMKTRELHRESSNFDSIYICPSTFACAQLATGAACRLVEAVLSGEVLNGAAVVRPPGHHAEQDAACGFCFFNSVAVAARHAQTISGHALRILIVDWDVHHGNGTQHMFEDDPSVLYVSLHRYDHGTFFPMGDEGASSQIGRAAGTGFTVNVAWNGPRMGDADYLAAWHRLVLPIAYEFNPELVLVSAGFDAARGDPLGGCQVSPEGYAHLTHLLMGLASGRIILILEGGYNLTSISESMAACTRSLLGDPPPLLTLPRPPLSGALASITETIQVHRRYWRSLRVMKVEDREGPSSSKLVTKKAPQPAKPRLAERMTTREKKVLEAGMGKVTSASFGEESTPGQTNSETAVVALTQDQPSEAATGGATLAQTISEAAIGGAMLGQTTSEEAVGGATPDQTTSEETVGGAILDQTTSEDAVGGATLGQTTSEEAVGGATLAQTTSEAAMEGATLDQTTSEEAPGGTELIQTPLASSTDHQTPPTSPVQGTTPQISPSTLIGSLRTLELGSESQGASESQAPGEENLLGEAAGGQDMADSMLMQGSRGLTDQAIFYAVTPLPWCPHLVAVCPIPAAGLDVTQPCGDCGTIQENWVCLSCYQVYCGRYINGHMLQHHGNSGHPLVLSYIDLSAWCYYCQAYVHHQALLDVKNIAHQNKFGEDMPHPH
Assay: HDAC6 Enzyme Assay
Type: biochemical
Protocol: To measure the inhibition of HDAC6 activity, purified human HDAC6 (BPS Bioscience; Cat. No. 5006) is incubated with substrate Ac-Arg-Gly-Lys(Ac)-AMC peptide (Bachem Biosciences; Cat. No. 1-1925) for 1 hour at 30° C. in the presence of test compounds or vehicle DMSO control. The reaction is stopped with the HDAC inhibitor trichostatin A (Sigma; Cat. No. T8552) and the amount of Arg-Gly-Lys-AMC generated is quantitated by digestion with trypsin (Sigma; Cat. No. T1426) and subsequent measurement of the amount of AMC released using a fluorescent plate reader (Pherastar; BMG Technologies) set at Ex 340 nm and Em 460 nm. Concentration response curves are generated by calculating the fluorescence increase in test compound-treated samples relative to DMSO-treated controls, and enzyme inhibition (IC50) values are determined from those curves.

[1] = purified human HDAC6, substrate Ac-Arg-Gly-Lys(Ac)-AMC, 1 hour at 30° C., reported as bins

IC50 [1] | Structure (SMILES) | also measured
< 100 nM | Cc1cc(C(=O)NC(C)c2ccc(C(=O)NO)cc2)n(C)n1 (stereo not drawn) [Compound I-288, N-(1-{4-[(hydroxyamino)carbonyl]phenyl}ethyl)-1,3-dimethyl-1H-pyrazole-5-carboxamide] | –
100 to 500 nM | Cc1cc(C)c(C(=O)NC(c2ccc(C(=O)NO)cc2)C(C)(C)C)[nH]1 (stereo not drawn) [Compound I-262, N-(1-{4-[(hydroxyamino)carbonyl]phenyl}-2,2-dimethylpropyl)-3,5-dimethyl-1H-pyrrole-2-carboxamide] | –
– | CC(C)C(NC(=O)c1cc(C(F)(F)F)ccc1C(F)(F)F)c1ccc(C(=O)NO)cc1 (stereo not drawn) [Compound I-155, N-(1-{4-[(hydroxyamino)carbonyl]phenyl}-2-methylpropyl)-2,5-bis(trifluoromethyl)benzamide] | IC50 (bin: greater than 1 μM): > 1000 nM
100 to 500 nM | CC(NC(=O)c1c2c(nn1C)CCCC2)c1ccc(C(=O)NO)cc1 (stereo not drawn) [Compound I-114, N-(1-{4-[(hydroxyamino)carbonyl]phenyl}ethyl)-2-methyl-4,5,6,7-tetrahydro-2H-indazole-3-carboxamide] | –
< 100 nM | Cc1ccc(NC(=O)NC(C)c2ccc(C(=O)NO)cc2)cc1C (stereo not drawn) [Compound I-55, 4-[1-({[(3,4-dimethylphenyl)amino]carbonyl}amino)ethyl]-N-hydroxybenzamide] | –
< 100 nM | CC(NC(=O)Nc1cccc2ccccc12)c1ccc(C(=O)NO)cc1 (stereo not drawn) [Compound I-6, N-hydroxy-4-(1-{[(1-naphthylamino)carbonyl]amino}ethyl)benzamide] | –
< 100 nM | Cn1cc(C(=O)NC(c2ccc(C(=O)NO)cc2)C(C)(C)C)c2ccccc21 (stereo not drawn) [Compound I-107, N-(1-{4-[(hydroxyamino)carbonyl]phenyl}-2,2-dimethylpropyl)-1-methyl-1H-indole-3-carboxamide] | –
< 100 nM | Cc1ccc2[nH]c(C(=O)NC(c3ccc(C(=O)NO)cc3)C(C)C)cc2c1 (stereo not drawn) [Compound I-69, N-(1-{4-[(hydroxyamino)carbonyl]phenyl}-2-methylpropyl)-5-methyl-1H-indole-2-carboxamide] | –
– | CC(NC(=O)CC1CCCC1)c1ccc(C(=O)NO)cc1 (stereo not drawn) [Compound I-370, 4-{1-[(cyclopentylacetyl)amino]ethyl}-N-hydroxybenzamide] | IC50 (bin: greater than 1 μM): > 1000 nM
< 100 nM | CC(C)C(NC(=O)c1cccs1)c1ccc(C(=O)NO)cc1 (stereo not drawn) [Compound I-112, N-(1-{4-[(hydroxyamino)carbonyl]phenyl}-2-methylpropyl)thiophene-2-carboxamide] | –
100 to 500 nM | Cn1ccc(C(=O)NC(c2ccc(C(=O)NO)cc2)C(C)(C)C)n1 (stereo not drawn) [Compound I-66, N-(1-{4-[(hydroxyamino)carbonyl]phenyl}-2,2-dimethylpropyl)-1-methyl-1H-pyrazole-3-carboxamide] | –
– | Cn1c(C(=O)N[C@@H](c2ccc(C(=O)NO)cc2)C(F)(F)F)cc2oc(-c3ccccc3)cc21 [Compound I-231, 4-methyl-2-phenyl-N-((1S)-2,2,2-trifluoro-1-{4-[(hydroxyamino)carbonyl]phenyl}ethyl)-4H-furo[3,2-b]pyrrole-5-carboxamide] | IC50 (bin: greater than 1 μM): > 1000 nM
– | CC(NS(=O)(=O)c1ccc2nsnc2c1)c1ccc(C(=O)NO)cc1 (stereo not drawn) [Compound I-272, 4-{1-[(2,1,3-benzothiadiazol-5-ylsulfonyl)amino]ethyl}-N-hydroxybenzamide] | IC50 (bin: greater than 500 nM and less than 1 μM (lower bound in nM, upper bound in μM)): 500 to 1000 nM
< 100 nM | CC(NC(=O)Nc1ccc(C(F)(F)F)cc1)c1ccc(C(=O)NO)cc1 (stereo not drawn) [Compound I-399, N-hydroxy-4-{1-[({[4-(trifluoromethyl)phenyl]amino}carbonyl)amino]ethyl}benzamide] | –
100 to 500 nM | CC(C)C(NC(=O)C1CCCCC1)c1ccc(C(=O)NO)cc1 (stereo not drawn) [Compound I-344, 4-{1-[(cyclohexylcarbonyl)amino]-2-methylpropyl}-N-hydroxybenzamide] | –
< 100 nM | CCC[C@@H](NC(=O)C(C)(C)C)c1ccc(C(=O)NO)cc1 [Compound I-365, 4-{(1R)-1-[(2,2-dimethylpropanoyl)amino]butyl}-N-hydroxybenzamide] | –
100 to 500 nM | O=C(N[C@H](c1ccc(C(=O)NO)cc1)C(F)(F)F)NC12CC3CC(CC(C3)C1)C2 [Compound I-105, 4-((1R)-1-{[(1-adamantylamino)carbonyl]amino}-2,2,2-trifluoroethyl)-N-hydroxybenzamide] | –
< 100 nM | CC(=O)Nc1cc(NC(C)=O)cc(C(=O)NC(c2ccc(C(=O)NO)cc2)C(C)C)c1 (stereo not drawn) [Compound I-282, 3,5-bis(acetylamino)-N-(1-{4-[(hydroxyamino)carbonyl]phenyl}-2-methylpropyl)benzamide] | –
< 100 nM | CCC[C@@H](NC(=O)c1sc2ccccc2c1C)c1ccc(C(=O)NO)cc1 [Compound I-62, N-((1R)-1-{4-[(hydroxyamino)carbonyl]phenyl}butyl)-3-methyl-1-benzothiophene-2-carboxamide] | –
100 to 500 nM | CC(NC(=O)C1CC1)c1ccc(C(=O)NO)cc1 (stereo not drawn) [Compound I-239, 4-{1-[(cyclopropylcarbonyl)amino]ethyl}-N-hydroxybenzamide] | –
< 100 nM | CC(NC(=O)Nc1ccc2c(c1)CCO2)c1ccc(C(=O)NO)cc1 (stereo not drawn) [Compound I-148, 4-(1-{[(2,3-dihydro-1-benzofuran-5-ylamino)carbonyl]amino}ethyl)-N-hydroxybenzamide] | –
100 to 500 nM | Cc1cc(C(=O)NC(C)c2cccc(C(=O)NO)c2)nn1C (stereo not drawn) [Compound I-84, N-(1-{3-[(hydroxyamino)carbonyl]phenyl}ethyl)-1,5-dimethyl-1H-pyrazole-3-carboxamide] | –
100 to 500 nM | Cc1nc(C(=O)NC(c2ccc(C(=O)NO)cc2)C(C)(C)C)cs1 (stereo not drawn) [Compound I-42, N-(1-{4-[(hydroxyamino)carbonyl]phenyl}-2,2-dimethylpropyl)-2-methyl-1,3-thiazole-4-carboxamide] | –
100 to 500 nM | COc1cc(C(=O)NO)ccc1C(C)NC(=O)c1cc2ccccc2s1 (stereo not drawn) [Compound I-480, N-(1-{4-[(hydroxyamino)carbonyl]-2-methoxyphenyl}ethyl)-1-benzothiophene-2-carboxamide] | –
100 to 500 nM | CC(C)C(NC(=O)C1CCCCCC1)c1ccc(C(=O)NO)cc1 (stereo not drawn) [Compound I-382, N-(1-{4-[(hydroxyamino)carbonyl]phenyl}-2-methylpropyl)cycloheptanecarboxamide] | –
< 100 nM | CC(NC(=O)C1CCCC1)c1ccc(C(=O)NO)cc1 (stereo not drawn) [Compound I-88, 4-{1-[(cyclopentylcarbonyl)amino]ethyl}-N-hydroxybenzamide] | –
– | CC(NC(=O)c1cc2oc(-c3ccc(C(C)(C)C)cc3)cc2n1C)c1cccc(C(=O)NO)c1 (stereo not drawn) [Compound I-324, 2-(4-tert-butylphenyl)-N-(1-{3-[(hydroxyamino)carbonyl]phenyl}ethyl)-4-methyl-4H-furo[3,2-b]pyrrole-5-carboxamide] | IC50 (bin: greater than 1 μM): > 1000 nM
< 100 nM | CC(C)(C)C(NC(=O)c1cc2ccccc2s1)c1ccc(C(=O)NO)cc1 (stereo not drawn) [Compound I-308, N-(1-{4-[(hydroxyamino)carbonyl]phenyl}-2,2-dimethylpropyl)-1-benzothiophene-2-carboxamide] | –
100 to 500 nM | Cc1ccccc1S(=O)(=O)NC(C)c1ccc(C(=O)NO)cc1 (stereo not drawn) [Compound I-232, N-hydroxy-4-(1-{[(2-methylphenyl)sulfonyl]amino}ethyl)benzamide] | –
100 to 500 nM | Cc1onc(-c2ccccc2)c1NC(=O)NC(C)c1ccc(C(=O)NO)cc1 (stereo not drawn) [Compound I-305, N-hydroxy-4-[1-({[(5-methyl-3-phenylisoxazol-4-yl)amino]carbonyl}amino)ethyl]benzamide] | –
